# Assay results taken from US20220273593A1, “COMPOUNDS AND COMPOSITIONS FOR TREATING KIDNEY DISEASE” (JOHANN WOLFGANG GOETHE-UNIVERSITÄT FRANKFURT AM MAIN, priority 2019, published 2022).
# Entries after “also recorded” stand apart in the source; their conditions may differ.
# Legend:
# [1] = tested on: UUO mice; assay: UUO renal fibrosis model, Protocol 1 (preventive pre-treatment); assay type: in vivo, Male C57Bl/6J mice
# Protocol: This study was approved and conducted according to guidelines of the Institutional Animal Care and Use Committee, Medical College of Wisconsin. The Biomedical Resource Center at the Medical College of Wisconsin housed animals with free access to water and food and a 12/12 h light-dark cycle. Male C57B1/6J mice (8-10 weeks old) were purchased from Jackson Laboratories, Bar Harbor, Me. Mice were administered 2.0% isoflurane to induce anesthesia prior to UUO surgery. UUO surgery was conducted with by obstructing the left ureter proximal to the renal pelvis using a 6-o silk tie (Sharma et al., 2016; Kim et al., 2015). Mice with sham surgery went through the same procedure as the UUO mice except that the ureter was not ligated. Two experimental protocols were used to determine renal antifibrotic actions of DM509 and in both protocols the mice were subjected to Sham surgery (n=6/protocol) or Unilateral Ureteral Obstruction (UUO) surgery to induce renal fibrosis. In Protocol 1, mice went through UUO surgery after 24 hours pre-treatment of DM509 (10 mg/kg/d, p.o., n=8) or vehicle (n=8) and blood and kidney tissue were collected at day 10 of the UUO surgery. Mice of the Protocol 2 treated with DM509 (n=8) or vehicle (n=8) after 3 days of UUO surgery and continued for 7 days followed by blood and kidney tissue collection. […] Kidney hydroxyproline levels were measured using a commercially available kit (Sigma Aldrich, USA). Blood urea nitrogen (BUN) is measured using a kit from Arbor Assay, USA and monocyte chemoattractant protein-1 (MCP-1) was measured using kit from R&D Systems, Inc., USA. Renal mRNA expression for several fibrotic [fibronectin, α-smooth muscle actin (α-SMA), fibroblast specific protein-1 (FSP-1], tubular injury [NGAL, kidney injury molecule-1 (KIM-1), Claudins1,3,4,5], inflammatory (TNF-α, IL1β, IL-6, ICAM, VCAM) were studied by Real Time-PCR (RT-PCR) analysis. RNeasy Mini Kit (QIAGEN, Calif., USA) was used according to the manufacturer's protocol and messenger RNA (mRNA) was prepared from each sample homogenate. The mRNA samples were quantified spectrophotometrically and 1 μg of total RNA was reverse-transcribed to cDNA using iScript™ Select cDNA Synthesis Kit (Bio-Rad, Hercules, Calif., USA). Gene expression was quantified by iScript One-Step RT-PCR Kit with SYBR green using the MyiQ™ Single Color Real-Time PCR Detection System (Bio-Rad Laboratories, Hercules, Calif., USA). Dissociation curve analysis was accomplished with iQ5 Optical System Software, Version 2.1 (Bio-Rad Laboratories, Hercules, Calif., USA), and each amplified sample analysed for homogeneity. […] All samples were run in triplicate and fold change in gene expression compared to controls determined by comparative threshold cycle (Ct) method. […]
# [2] = molecular target: T1, sEH (Homo sapiens, UniProt P34913); assay: sEH inhibition (cellular); assay type: cell-based
# T1 sequence (P34913 1-555): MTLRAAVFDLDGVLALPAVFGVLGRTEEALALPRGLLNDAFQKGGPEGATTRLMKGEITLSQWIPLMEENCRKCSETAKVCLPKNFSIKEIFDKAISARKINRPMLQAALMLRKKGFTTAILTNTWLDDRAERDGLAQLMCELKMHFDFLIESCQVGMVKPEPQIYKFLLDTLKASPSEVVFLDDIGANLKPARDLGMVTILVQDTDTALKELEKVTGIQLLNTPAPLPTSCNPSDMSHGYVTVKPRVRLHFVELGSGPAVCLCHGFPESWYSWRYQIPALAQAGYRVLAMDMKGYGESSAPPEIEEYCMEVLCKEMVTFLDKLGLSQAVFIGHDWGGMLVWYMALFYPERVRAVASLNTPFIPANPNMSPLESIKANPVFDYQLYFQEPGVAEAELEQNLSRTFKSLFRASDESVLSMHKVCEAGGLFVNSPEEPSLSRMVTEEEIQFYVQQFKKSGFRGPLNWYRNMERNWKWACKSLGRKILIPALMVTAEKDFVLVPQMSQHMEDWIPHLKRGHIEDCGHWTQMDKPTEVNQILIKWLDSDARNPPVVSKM
# [3] = tested on: C57BL/6JRj mice; assay: DIO NASH model (Gubra Amylin NASH Diet); assay type: in vivo; details: 12 weeks, DM or MH 10 mg/kg, Obeticholic Acid 30 mg/kg
# Protocol: In vivo effects of the compounds (DM and MH) were examined in a NASH model which is outlined by the timeline in FIG. 8A. 41 weeks before treatment NASH was induced in C57BL/6JRj mice by using the Gubra Amylin NASH Diet. After stratification, randomization and base-line measurements the mice were divided into four groups (16 mice per group). Each group was either dosed with 10 mg/kg of DM or MH, 30 mg/kg Obeticholic Acid or vehicle for 12 weeks respectively. […] After four weeks of treatment (FIG. 8C) and after termination (FIG. 8D) biochemical parameters were determined to examine and compare liver health (plasma alanine aminotransferase and plasma aspartate aminotransferase) and lipid homeostasis (plasma triglycerides and plasma total cholesterol) among treatment groups and healthy mice. Furthermore, livers of all animals were analyzed by histopathology and the use of immuno-histochemistry (FIG. 9 and FIG. 10). […] Inflammatory effects in the treatment groups are shown in FIG. 13a in a similar manner including a post-treatment histopathological analysis of inflammatory markers for the different treatment groups in FIG. 13b to investigate the anti-inflammatory in vivo activity of the compounds.
# [4] = molecular target: T2, FXR (Homo sapiens, UniProt Q96RI1); assay: FXR activation (EC50, efficacy vs GW4064, mode); assay type: cell-based
# T2 sequence (Q96RI1 1-486): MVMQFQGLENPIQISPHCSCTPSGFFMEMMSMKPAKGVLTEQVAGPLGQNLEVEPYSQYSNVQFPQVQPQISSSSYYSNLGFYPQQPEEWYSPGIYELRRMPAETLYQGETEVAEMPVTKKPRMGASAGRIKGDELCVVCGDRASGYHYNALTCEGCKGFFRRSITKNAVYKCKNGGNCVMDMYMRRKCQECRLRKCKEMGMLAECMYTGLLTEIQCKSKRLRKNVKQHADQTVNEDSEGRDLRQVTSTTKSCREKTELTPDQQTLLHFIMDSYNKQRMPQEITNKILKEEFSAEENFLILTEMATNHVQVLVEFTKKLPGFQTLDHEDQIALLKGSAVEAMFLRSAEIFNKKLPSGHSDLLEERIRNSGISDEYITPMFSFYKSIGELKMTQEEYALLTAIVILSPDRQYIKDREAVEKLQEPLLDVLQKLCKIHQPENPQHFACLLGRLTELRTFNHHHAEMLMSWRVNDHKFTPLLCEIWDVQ
# [5] = tested on: UUO mice; assay: UUO renal fibrosis model, Protocol 2 (interventional treatment); assay type: in vivo, Male C57Bl/6J mice
# Protocol: This study was approved and conducted according to guidelines of the Institutional Animal Care and Use Committee, Medical College of Wisconsin. The Biomedical Resource Center at the Medical College of Wisconsin housed animals with free access to water and food and a 12/12 h light-dark cycle. Male C57B1/6J mice (8-10 weeks old) were purchased from Jackson Laboratories, Bar Harbor, Me. Mice were administered 2.0% isoflurane to induce anesthesia prior to UUO surgery. UUO surgery was conducted with by obstructing the left ureter proximal to the renal pelvis using a 6-o silk tie (Sharma et al., 2016; Kim et al., 2015). Mice with sham surgery went through the same procedure as the UUO mice except that the ureter was not ligated. Two experimental protocols were used to determine renal antifibrotic actions of DM509 and in both protocols the mice were subjected to Sham surgery (n=6/protocol) or Unilateral Ureteral Obstruction (UUO) surgery to induce renal fibrosis. In Protocol 1, mice went through UUO surgery after 24 hours pre-treatment of DM509 (10 mg/kg/d, p.o., n=8) or vehicle (n=8) and blood and kidney tissue were collected at day 10 of the UUO surgery. Mice of the Protocol 2 treated with DM509 (n=8) or vehicle (n=8) after 3 days of UUO surgery and continued for 7 days followed by blood and kidney tissue collection. Kidney samples for histological and immune-histological studies were fixed in 10% buffered formalin and stored at room temperature. Serum and tissue samples for biochemical and gene expression analysis were snap-frozen in liquid nitrogen and stored at […]. Kidney hydroxyproline levels were measured using a commercially available kit (Sigma Aldrich, USA). Blood urea nitrogen (BUN) is measured using a kit from Arbor Assay, USA and monocyte chemoattractant protein-1 (MCP-1) was measured using kit from R&D Systems, Inc., USA. Renal mRNA expression for several fibrotic [fibronectin, α-smooth muscle actin (α-SMA), fibroblast specific protein-1 (FSP-1], tubular injury [NGAL, kidney injury molecule-1 (KIM-1), Claudins1,3,4,5], inflammatory (TNF-α, IL1β, IL-6, ICAM, VCAM) were studied by Real Time-PCR (RT-PCR) analysis. RNeasy Mini Kit (QIAGEN, Calif., USA) was used according to the manufacturer's protocol and messenger RNA (mRNA) was prepared from each sample homogenate. The mRNA samples were quantified spectrophotometrically and 1 μg of total RNA was reverse-transcribed to cDNA using iScript™ Select cDNA Synthesis Kit (Bio-Rad, Hercules, Calif., USA). Gene expression was quantified by iScript One-Step RT-PCR Kit with SYBR green using the MyiQ™ Single Color Real-Time PCR Detection System (Bio-Rad Laboratories, Hercules, Calif., USA). Dissociation curve analysis was accomplished with iQ5 Optical System Software, Version 2.1 (Bio-Rad Laboratories, Hercules, Calif., USA), and each amplified sample analysed for homogeneity. Denaturation was done at 95° C. for 2 min followed by 40 cycles conducted at 95° C. for 10 s and at 60° C. for 30 s. All samples were run in triplicate and fold change in gene expression compared to controls determined by comparative threshold cycle (Ct) method. Target gene expression levels were determined by normalizing Ct values to two housekeeping genes. Statistical analyses were carried out using six samples from each experimental group and comparing to the control group. […] PAS-stained tissue was evaluated for tubular injury whilst PSR was used to determine collagen-positive renal interstitial fibrosis levels. Histopathological changes were scored as published previously and scores presented as a percentage area-fraction relative to the total area analysed. Tubular injury (PAS-cast areas) and interstitial fibrosis (PSR-collagen positive areas) scoring was performed in a blinded fashion by two observers. […]
# [6] = molecular target: T1, sEH; assay: sEH inhibition (enzyme); assay type: biochemical
# [7] = molecular target: T2, FXR; assay: FXR binding (Kd)
# [8] = DM509 pre-treatment 10 mg/kg/d p.o., day 10
# [9] = interventional treatment 10 mg/kg/d, 7 days
smiles,measurement,setting,value
CC(C)(C)c1ccc(C(=O)NCc2ccc(NS(C)(=O)=O)cc2Cl)cc1 [DM509],lower collagen positive area than vehicle,[1]; [8],54%
same,"lower renal mRNA expression of fibrotic markers (α-SMA, fibronectin) than vehicle",[1]; [8],40-60%
same,lower renal mRNA expression of inflammatory markers,[1]; [8],50-80%
same,kidney fibrosis (in words),[1]; preventive treatment 10 mg/kg/d,decreased UUO kidney fibrosis
same,IC50,[2],1 nM
same,"cumulative daily food intake, difference among treatment groups",[3],neither differences in cummulative daily food intake
same,EC50,[4],20 nM
same,FXR efficacy,[4],35 % of GW4064
same,FXR mode of action,[4],partial agonist
same,renal CD45 positive inflammatory cell infiltration (in words),[5],reduced infiltration of these cells
same,renal VE-cadherin mRNA and CD31 positive cells (in words),[5],markedly mitigated the decrease of VE-cadherin and CD31 positive cells
same,"renal inflammation: renal MCP-1 level and cytokine (TNF-α, IL1β, IL6) expression (in words)",[5],markedly mitigated renal inflammation; also recorded: reduced renal inflammation
same,renal mRNA expression of claudins (in words),[5],"re-stored the mRNA expressions of claudins 1,3,4 and 5; also recorded: restoring claudin expressions"
same,renal mRNA expression of tubular injury markers KIM-1 and NGAL (in words),[5],mitigated this marked elevation
same,renal mRNA expression of vascular inflammatory markers ICAM and VCAM (in words),[5],mitigated elevated expression
same,peritubular vascular density assessed by CD31 expression (in words),[5]; interventional treatment,mitigated vascular density loss
same,"EMT: mesenchymal (FSP-1, fibronectin, α-SMA) and epithelial (E-cadherin) marker expressions in kidney (in words)",[5]; interventional treatment 10 mg/kg/d,markedly attenuated EMT; also recorded: markedly reduced EMT
same,reduction of BUN,"[5]; interventional treatment 10 mg/kg/d in drinking water, 7 days",40%
same,reduction of collagen positive area,[5]; [9],65%
same,reduction of kidney hydroxyproline content,[5]; [9],41%
same,reduction of renal ICAM and VCAM gene expression,[5]; [9],40-50%
same,"reduction of tubular injury markers (KIM-1, NGAL)",[5]; [9],25-50%
same,renal fibrosis: collagen positive area and renal hydroxyproline content (in words),[5]; treatment from day 3 after UUO for 7 days,markedly mitigated renal fibrosis
same,IC50,[6],4 nM
CC(C)(C)c1ccc(C(=O)NCc2ccc(NS(C)(=O)=O)cc2Cl)s1 [MH],Kd,[7],1400 nM
same,IC50,[2],< 1 nM
same,"cumulative daily food intake, difference among treatment groups",[3],neither differences in cummulative daily food intake
same,FXR mode of action,[4],selective modulator
same,IC50,[6],< 1 nM
"CC[C@H]1[C@@H](O)[C@@H]2[C@H](CC[C@]3(C)[C@@H]([C@H](C)CCC(=O)O)CC[C@@H]23)[C@@]2(C)CC[C@@H](O)C[C@@H]12 [Obeticholic Acid, reference compound]","cumulative daily food intake, difference among treatment groups",[3],neither differences in cummulative daily food intake
